Values of other authors in US20100291629A1, “USE OF DELEUCOCYTATION FILTERS FOR DEFENSIN PURIFICATION” (ETABLISSEMENT FRANCAIS DU SANG, priority 2006, published 2010).

Assays:
[1] = system: neutrophils
[2] = system: neutrophils; conditions: PMA 1 μg/ml
[3] = system: isolated neutrophils; conditions: Ionomycin 1 μM; 30.10^6 isolated neutrophils

CSCC[C@H](NC=O)C(=O)N[C@@H](CC(C)C)C(=O)N[C@@H](Cc1ccccc1)C(=O)O [fMLP, N-formylmethionyl-leucyl-phenylalanine]
defensin release, % of the content ([1]; fMLP 10^−7 M): 17%

CCCCCCCCCCCCCC(=O)O[C@@H]1[C@@H](C)[C@@]2(O)[C@@H](C=C(CO)C[C@]3(O)C(=O)C(C)=C[C@@H]23)[C@@H]2C(C)(C)[C@]12OC(C)=O [PMA, phorbol myristate acetate]
defensins released [2]: 8%

IL8: Interleukine 8, used to treat neutrophils in vitro
defensin release, % of the defensin content in neutrophil granules ([1]; IL8 50 ng/ml, 2.10^6 neutrophils): 10%

C[C@H](CCC(=O)O)C[C@H](C)C[C@H](C)C(=O)/C=C(\O)[C@H](C)C[C@H](C)C/C=C/[C@@H](C)[C@@H](O)[C@@H](C)[C@@H](O)C[C@@H]1CC[C@@](C)([C@H]2CC[C@@](C)([C@@H](C)O)O2)O1 [ionomycin, Ionomycin]
α-defensin exocytosis rate [3]: approximately 20%
